These results are taken from US20230121867A1, “COMPOSITIONS AND METHODS FOR TREATING DISEASES AND CONDITIONS BY DEPLETION OF MITOCHONDRIAL OR GENOMIC DNA FROM CIRCULATION” (Cedars-Sinai Medical Center, priority 2019, published 2023).

Experiment [1] deals with xenografts of CAF and PC3 cells. The experiment is described as follows: Subcutaneous xenograft of PC3 and CAF in male nude mice.
Source text: A Subcutaneous xenografts of PC3 and CAF tumor volumes were longitudinally measured. […] Representative images show each group of mice (inset). […] C Immunolocalization ofphosphorylated-TAK1, complement C3, phosphorylated-AKT, phosphorylated-histoneH3 and TUNEL expression in tumor tissues (brown) was counterstained with hematoxylin (blue). The corresponding bar graph illustrate the mean and S.D. expression of the respective staining (n=5). Data represent the mean ± S.D. by one-way ANOVA (*P <0.05; **P <0.01). The scale bar represents 10 µm.
Data represent the mean ± S.D. among groups by oneway ANOVA (ns - not significant). C H&E images of resulting tumors from each treatment group of subcutaneous xenografted mice.
Animal experiments and cultured cells: Male C57BL/6 mice aged 7-8 weeks were housed in a pathogen-free environment at the Cedars-Sinai Medical Center Animal Facility under the approval of the Institutional Animal Care and Use Committee (# 3679). Sub-renal capsule was performed with wild type mouse fibroblasts (6×10^5) or TLR9^-/- mouse fibroblasts (6×10^5) combining with mouse prostate epithelial cell TRAMP-C2 (2×10^5) . Treatment with SB290157 (1 mg/kg; i.p. daily) was started after two weeks of grafting and continued for five weeks. All mouse kidney, spleen, lymph nodes were harvested after five weeks of treatment were fixed in paraffin embedded for IHC or dissociated for FACS analysis. Subcutaneous xenograft was done in male nude mice aged 7-8 weeks in combination of PC3 (5×10^5) and CAF (15×10^5). […] Harvested tissues were fixed in paraffin embedded for IHC or dissociated for immunoblot analysis.
Immunodetection: Paraffin embedded tissue were processed for Immunohistochemical localization was performed with antibodies against p-AKT, p-TAK, p-histoneH3 (Cell Signaling, Danvers, MA), C3 (Santa Cruz Biotechnology, Santa Cruz, CA), and TUNEL (Thermo Fisher Scientific Inc.) as previously described before (52, 53). All the slides were scanned using Leica SCN400 (Leica Micro System, Buffalo Grove, IL) and analyzed by Tissue IA Optimizer (Leica). The values of positively stained cells were measured in an unbiased manner. C3a concentration of cultured medium and serum was assayed by sandwich ELISA using human C3a ELISA kit (BD Bioscience, San Jose, CA) according to the manufacturer’s instructions. Western blots separated by 10, 12, or 15% SDS-polyacrylamidegels were incubated with primary antibodies for TLR9, DEC205 (LS Bio Seattle, WA), phospho-TAK1, TAK1, phospho-AKT, AKT, phosphor-ERK1/2, ERK, BCL2, beclin, CHOP (Cell Signaling), LC3 (Abcam, Cambridge, MA), C3 (Santa Cruz Biotechnology) and p62 (ProgenBiotechnik, Heidelberg, Germany). Western blots were visualized using alkaline phosphatase-conjugated secondary antibodies (Sigma-Aldrich). The ELISA for anaphylatoxin C3a for performed according to manufacturer guidelines (LSBio Inc.).
Experiment [2] deals with TRAMPC2 with wild type fibroblasts allografts. The experiment is described as follows: Sub-renal capsule allograft of TRAMPC2 with wild type fibroblasts in C57BL/6 mice. It is filed as in vivo, mouse. Here is the method: FIG. 3, panels A-E, depicts Role of C3a in PCa progression. A PCa cell lines incubated in the absence and presence of C3a receptor agonist peptide (48 hr) was western blotted for cell survival and proliferation protein expression. B C57BL/6 mice were allografted with tissue recombinants of luciferase-expressing TRAMPC2 with wild type (wt) or Tlr9^-/-fibroblasts. The mice were treated with saline or […], SB290157. Luciferase bioluminescence was used to image tumor progression. C Mean tumor volume (mm^3) and standard deviation (S.D.) for each treatment condition are depicted (n=8). D H&E and immunohistochemistry for phosphorylated-AKT, phosphorylated-histone-H3 and TUNEL staining of the tumor tissues were performed and quantitated. […] The scale bar represents 10 µm.
To validate the observation of C3a signaling, we allografted mouse prostatic fibroblasts with PCa epithelia into syngeneic C57B/6 mice. We grafted either wild type or TLR9-knockout fibroblasts and recombined them with luciferase-expressing TRAMPC2 cells under the renal capsule. After the tumors were visible by bioluminescent imaging, the mice were treated with either vehicle (control) or SB290157, a C3aR antagonist. […] We were only able to perform immunohistochemistry on the grafts with wild type fibroblasts and TRAMPC2, as not enough tissue was available from grafts with TLR9-knockout fibroblasts. […] The activation of AKT, localized by phosphorylated AKT staining, was elevated in the tumor cells of mouse allografted with wild type fibroblasts and reversed in SB290157 treated mice.
Complement anaphylatoxins have a wide spectrum of proinflammatory effects. C3a is particularly regarded for the chemotaxis of mast cells, basophils and eosinophils. As T lymphocytes are confirmed regulators of tumor progression and known to respond to C3a, we measured the impact of C3a antagonism on T cell recruitment to the tumors.

A further experiment deals with PC3 cells. The experiment is described as follows: MTT viability drug interaction study, Chou-Talalay method. The settings on record: low doses of SB290157 with docetaxel. The experiment is classed as cell-based. The protocol: (§1) Significance was determined by repeated measures ANOVA.
Statistical analysis: Experiments were done a minimum of three times. Results were shown in terms of mean ± S.D. Student’s t-test and one-way ANOVA were used for comparisons among groups and repeated measured ANOVA was applied for determining the significance of two or more data series. Statistical tests utilized are reported in the figure legends, along with the associated P values was performed by using Origin software (OriginLab, Northampton, MA). Cell viability was examined by using MTT assay as indicated by the manufacturer (Thermo Fisher, Canoga Park, CA) for the calculation of synergistic drug interactions was performed by Chou-Talalay method (R Package).

The test system of the next experiment is PC3 and CAF co-culture. The experiment is described as follows: 3D organotypic co-culture of PC3 and CAF, EpCAM+/Ki67+ FACS. The experiment is classed as cell-based. The settings on record: PC3 and CAF 3D co-culture, 48 hours. The protocol: as §1
3D organotypic co-culture: 3D organotypic co-culture was performed in a collagen matrix. PC3 and CAF were combined in a 1:3 ratio in collagen matrix contain 50% rat tail collagen I, 20% of matrigel, 10% of 10x DMEM medium and 1x ready DMEM 5%, 1x ready RPMI 5%, FBS 5% and Nu serum 5%. Cells were treated with docetaxel and SB290157 for 48 hours after 72 hours of expansion in the matrix. The cells were dissociated from the matrix with collagenase and dispase for Ki67 FACS analysis.

[3] abbreviates: western blot, SB290157 with docetaxel.

Take `NC(N)=NCCC[C@H](NC(=O)COCC(c1ccccc1)c1ccccc1)C(=O)O` [SB290157]: the “apoptosis (TUNEL)” value in experiment [1] (SB290157 with docetaxel compared to docetaxel alone) is given as “did not result in greater apoptosis”. Also, the tumor growth result in experiment [1] (combined treatment of docetaxel (6 mg/kg/week) and SB290157 (1 mg/kg IP every day), P < 0.05) is “significantly limited tumor growth”. For the same molecule, the “phosphorylation of AKT and phosphorylated histone-H3 (cell survival pathway and mitosis)” value in experiment [1] (immunohistochemistry, combined treatment of docetaxel and SB290157 versus docetaxel) is recorded as “significantly diminished”. In experiment [1] (setting [3]), the “AKT and ERK1/2 phosphorylation in tumor tissues” value is “reduced AKT and ERK1/2 phosphorylation”; the “Blc2 in tumor tissues” value is recorded as “reduced”. In experiment [2] (1 mg/kg i.p. daily, versus vehicle treated mice), the tumor size result is “significantly smaller tumor size”. For the same molecule, in experiment [2] (FACS of tumor tissues), the “CD3+ T cells recruited to the tumors” value is given as “similarly recruited” and the “CD8+ T cell activation (CD69+ expression)” value is listed as “appreciably downregulated”. In experiment [2] (immunohistochemistry of grafts), the “activation of AKT (phosphorylated AKT staining)” value is on record as “reversed” and the “cell death (TUNEL staining)” value was “elevate cell death”. In experiment [2] (immunohistochemistry of grafts, 1 mg/kg i.p. daily, 1 mg/kg), the “tumor cell mitosis (phosphorylated-histone H3 expression), tumor proliferation” value is “significantly diminish tumor proliferation”. For the same molecule, in experiment [2] (immunohistochemistry of grafts, 1 mg/kg i.p. daily, listed as SB29157, 1 mg/kg), the “tumor cell mitosis (phosphorylated-histone H3 expression), tumor proliferation” value was “significantly lower”. In addition, the “fractional inhibitory concentration index” value with PC3 cells was less than 0.5. In addition, the “EpCAM+/Ki67+ proliferative epithelial fraction” value in the experiment with PC3 and CAF co-culture is given as “restored the sensitivity of PC3 cells to docetaxel”.
